Measurements reported in PubChem BioAssay AID200 (DTP/NCI, 2004).
Several values for one entry are separate records, joined by “and”; a condition that tells them apart may be missing. Equal values may be shown once. Inconclusive results and toxic doses are left out.

Test system: B6C3F1 mice, B16 melanoma ip, median survival T/C
Assay: NCI In Vivo Anticancer Drug Screen. Data for tumor model B16 Melanoma (intraperitoneal) in B6C3F1 mice
Conditions: endpoint: median survival time, higher = longer survival
Method in brief: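 Transplantable tumor in mice; treated vs vehicle control groups; survival or tumor size measured; value = T/C ratio.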

[1] = dose: 12.5 mg/kg/injection, schedule: Q01DX009 (ip), vehicle: saline with Tween-80
[2] = dose: 25.0 mg/kg/injection, schedule: Q01DX009 (ip), vehicle: saline with Tween-80
[3] = dose: 50.0 mg/kg/injection, schedule: Q01DX009 (ip), vehicle: saline with Tween-80
[4] = dose: 100.0 mg/kg/injection, schedule: Q01DX009 (ip), vehicle: saline with Tween-80
[5] = dose: 200.0 mg/kg/injection, schedule: Q01DX009 (ip), vehicle: saline with Tween-80
[6] = dose: 30.0 micrograms/kg/injection, schedule: Q01DX009 (ip), vehicle: saline
[7] = dose: 60.0 micrograms/kg/injection, schedule: Q01DX009 (ip), vehicle: saline
[8] = dose: 50.0 mg/kg/injection, schedule: Q01DX009 (ip), vehicle: Klucel (hydroxypropylcellulose) (HPC)
[9] = dose: 100.0 mg/kg/injection, schedule: Q01DX009 (ip), vehicle: Klucel (hydroxypropylcellulose) (HPC)
[10] = dose: 200.0 mg/kg/injection, schedule: Q01DX009 (ip), vehicle: Klucel (hydroxypropylcellulose) (HPC)
[11] = dose: 400.0 mg/kg/injection, schedule: Q01DX009 (ip), vehicle: Klucel (hydroxypropylcellulose) (HPC)

CC(=O)C1=C(O)C2(O)C(=O)c3c(c(C)c4ccc(C)c(O)c4c3O)CC2C(N)C1=O (stereo not drawn)
T/C (dose: 3.75 mg/kg/injection, schedule: Q01DX009 (ip), vehicle: saline + alcohol): 109 % of control | T/C (dose: 7.3 mg/kg/injection, schedule: Q01DX009 (ip), vehicle: saline + alcohol): 120 % of control | T/C (dose: 7.5 mg/kg/injection, schedule: Q01DX009 (ip), vehicle: saline + alcohol): 114 % of control

O=C1C=CC(=O)O1 (tested in a mixture with another compound)
T/C (dose: 12.5 mg/kg/injection, schedule: Q01DX009 (ip), vehicle: saline): 101 % of control | T/C (dose: 12.5 mg/kg/injection, schedule: Q04DX003 (ip), vehicle: saline): 104 % of control | T/C (dose: 25.0 mg/kg/injection, schedule: Q01DX009 (ip), vehicle: saline): 113 % of control | T/C (dose: 25.0 mg/kg/injection, schedule: Q04DX003 (ip), vehicle: saline): 101 % of control and 106 % of control | T/C (dose: 50.0 mg/kg/injection, schedule: Q01DX009 (ip), vehicle: saline): 117 % of control | T/C (dose: 50.0 mg/kg/injection, schedule: Q04DX003 (ip), vehicle: saline): 108 % of control | T/C (dose: 400.0 mg/kg/injection, schedule: Q01DX009 (ip), vehicle: saline): 123 % of control

COC(=O)[C@@]12OC[C@]34[C@H]([C@@H](O)[C@@H]1O)[C@@]1(C)CC(=O)C(O)=C(C)[C@@H]1C[C@H]3OC(=O)[C@H](OC(=O)/C=C(\C)C1(C)CO1)[C@@H]24 (stereo partly drawn)
T/C (dose: 0.01 mg/kg/injection, schedule: Q01DX009 (ip), vehicle: saline + alcohol): 108 % of control | T/C (dose: 0.03 mg/kg/injection, schedule: Q01DX009 (ip), vehicle: saline + alcohol): 116 % of control

CC[n+]1c(-c2ccccc2)c2cc(N)ccc2c2ccc(N)cc21
T/C (dose: 0.75 mg/kg/injection, schedule: Q01DX009 (ip), vehicle: water): 97 % of control | T/C (dose: 1.5 mg/kg/injection, schedule: Q01DX009 (ip), vehicle: water): 104 % of control | T/C (dose: 3.0 mg/kg/injection, schedule: Q01DX009 (ip), vehicle: water): 117 % of control and 97 % of control | T/C (dose: 6.0 mg/kg/injection, schedule: Q01DX009 (ip), vehicle: water): 118 % of control | T/C (dose: 12.0 mg/kg/injection, schedule: Q01DX009 (ip), vehicle: water): 154 % of control

COc1cc2cc3c(c(O)c2c(O)c1/C=C/C(C)C)C(=O)CC(C)(OC(C)=O)C3 (stereo not drawn)
T/C (dose: 0.62 mg/kg/injection, schedule: Q01DX009 (ip), vehicle: Klucel (hydroxypropylcellulose) (HPC)): 98 % of control | T/C (dose: 0.63 mg/kg/injection, schedule: Q01DX009 (ip), vehicle: Klucel (hydroxypropylcellulose) (HPC)): 104 % of control | T/C (dose: 1.25 mg/kg/injection, schedule: Q01DX009 (ip), vehicle: Klucel (hydroxypropylcellulose) (HPC)): 109 % of control and 112 % of control | T/C (dose: 2.5 mg/kg/injection, schedule: Q01DX009 (ip), vehicle: Klucel (hydroxypropylcellulose) (HPC)): 115 % of control and 122 % of control | T/C (dose: 10.0 mg/kg/injection, schedule: Q01DX009 (ip), vehicle: Klucel (hydroxypropylcellulose) (HPC)): 100 % of control

N#Cc1ccc(NC(=O)Nc2nccs2)cc1
T/C (dose: 100.0 mg/kg/injection, schedule: Q01DX009 (ip), vehicle: distilled water + Tween-80): 150 % of control

O=Cc1ccc([N+](=O)[O-])s1
T/C (dose: 3.12 mg/kg/injection, schedule: Q01DX009 (ip), vehicle: saline with Tween-80): 98 % of control | T/C (dose: 6.25 mg/kg/injection, schedule: Q01DX009 (ip), vehicle: saline with Tween-80): 105 % of control | T/C [1]: 101 % of control | T/C [2]: 101 % of control | T/C [3]: 88 % of control

CCSC(=O)N1c2ccc(OC)cc2C=CC1C#N (stereo not drawn)
T/C [3]: 121 % of control and 95 % of control | T/C [4]: 124 % of control and 107 % of control | T/C [5]: 110 % of control

NC(=S)N/N=C/c1ccc(O)cn1
T/C (dose: 12.5 mg/kg/injection, schedule: Q01DX009 (ip), vehicle: suspension in saline): 106 % of control | T/C (dose: 25.0 mg/kg/injection, schedule: Q01DX009 (ip), vehicle: suspension in saline): 113 % of control | T/C (dose: 50.0 mg/kg/injection, schedule: Q01DX009 (ip), vehicle: suspension in saline): 119 % of control | T/C (dose: 100.0 mg/kg/injection, schedule: Q01DX009 (ip), vehicle: suspension in saline): 118 % of control

CSC1SCC2C(=O)N(C)C(C(C)C)C(=O)OCC(NC(=O)c3cnc4ccccc4n3)C(=O)NC(C)C(=O)N(C)C1C(=O)N(C)C(C(C)C)C(=O)OCC(NC(=O)c1cnc3ccccc3n1)C(=O)NC(C)C(=O)N2C (stereo not drawn)
T/C (dose: 15.0 micrograms/kg/injection, schedule: Q01DX009 (ip), vehicle: saline with Tween-80): 106 % of control | T/C [6]: 176 % of control | T/C (dose: 32.0 micrograms/kg/injection, schedule: Q01DX009 (ip), vehicle: saline): 176 % of control | T/C (dose: 60.0 micrograms/kg/injection, schedule: Q01DX009 (ip), vehicle: saline with Tween-80): 121 % of control | T/C [7]: 172 % of control | T/C (dose: 64.0 micrograms/kg/injection, schedule: Q01DX009 (ip), vehicle: saline): 176 % of control | T/C (dose: 120.0 micrograms/kg/injection, schedule: Q01DX009 (ip), vehicle: saline): 209 % of control | T/C (dose: 128.0 micrograms/kg/injection, schedule: Q01DX009 (ip), vehicle: saline): 187 % of control | T/C (dose: 240.0 micrograms/kg/injection, schedule: Q01DX009 (ip), vehicle: saline): 181 % of control | T/C (dose: 480.0 micrograms/kg/injection, schedule: Q01DX009 (ip), vehicle: saline with Tween-80): 170 % of control

C[n+]1c(-c2cccc(OCCCCCCCOc3cccc(-c4c5cc(N)ccc5c5ccc(N)cc5[n+]4C)c3)c2)c2cc(N)ccc2c2ccc(N)cc21
T/C (dose: 0.02 mg/kg/injection, schedule: Q01DX009 (ip), vehicle: water): 98 % of control | T/C (dose: 0.04 mg/kg/injection, schedule: Q01DX009 (ip), vehicle: water): 109 % of control

C[C@H]1CCC/C=C/[C@@H]2C[C@H](O)C[C@H]2[C@H](O)/C=C/C(=O)O1
T/C (dose: 12.5 mg/kg/injection, schedule: Q01DX009 (ip), vehicle: Klucel (hydroxypropylcellulose) (HPC)): 89 % of control | T/C (dose: 25.0 mg/kg/injection, schedule: Q01DX009 (ip), vehicle: Klucel (hydroxypropylcellulose) (HPC)): 91 % of control | T/C [8]: 91 % of control

CCCC1CC(C(=O)NC(C(C)O)C2OC(SC)C(O)C(O)C2O)N(C)C1 (stereo not drawn)
T/C [8]: 113 % of control | T/C [9]: 95 % of control | T/C [10]: 100 % of control | T/C [11]: 89 % of control

NC(Cc1ccc(O)cc1)C(=O)O (stereo not drawn)
T/C [1]: 102 % of control | T/C [2]: 113 % of control | T/C [8]: 120 % of control | T/C [3]: 113 % of control | T/C [9]: 99 % of control | T/C [4]: 103 % of control | T/C [10]: 109 % of control | T/C [5]: 98 % of control | T/C [11]: 96 % of control | T/C (dose: 400.0 mg/kg/injection, schedule: Q01DX009 (ip), vehicle: saline with Tween-80): 103 % of control

CCN1C[C@]2(COC)[C@H](O)C[C@H](OC)[C@]34C1[C@H]([C@H](OC)[C@H]23)[C@]1(OC(C)=O)[C@H]2[C@@H](OC(=O)c3ccccc3)[C@](O)(C[C@H]24)[C@@H](OC)[C@@H]1O
T/C (dose: 7.5 micrograms/kg/injection, schedule: Q01DX009 (ip), vehicle: saline): 118 % of control | T/C (dose: 15.0 micrograms/kg/injection, schedule: Q01DX009 (ip), vehicle: saline): 115 % of control | T/C [6]: 99 % of control | T/C [7]: 122 % of control

O=CC(O)C(O)C(O)C(O)CO (stereo not drawn)
T/C (dose: 75.0 mg/kg/injection, schedule: Q01DX009 (ip), vehicle: saline): 95 % of control | T/C (dose: 150.0 mg/kg/injection, schedule: Q01DX009 (ip), vehicle: saline): 102 % of control | T/C (dose: 300.0 mg/kg/injection, schedule: Q01DX009 (ip), vehicle: saline): 103 % of control | T/C (dose: 600.0 mg/kg/injection, schedule: Q01DX009 (ip), vehicle: saline): 87 % of control | T/C (dose: 1200.0 mg/kg/injection, schedule: Q01DX009 (ip), vehicle: saline): 96 % of control
